# Reference: US4560662A, “Streptomyces antibioticus ATCC 31771 and process for obtaining same” (priority 1981, dated 1985)
# How the values were obtained:
# [1] = system: Haemophilus influenzae ATCC 19418; test: Bacteriostatic power in solid medium (MIC), aerobic Gram negative; assay type: cell-based
# Source text: (§1) Turning now to an examination of the novel macrolide antibiotics produced according to the present invention, they are all characterized by a bacteriostatic spectrum like that of erythromycin and by the stability in acidic environment, whereby their direct administration by oral route is possible, without having recourse to esters and/or salts, showing the afore mentioned disadvantages and problems. The above is confirmed by the following Table 1, wherein the MIC values are reported, indicating the bacteriostatic power, and by the Table 2, giving the stability values in acidic environment. Without having to be construed in a limiting sense, it seems plausible that the greater stability of the macrolide. antibiotics of the present invention can be attributed to the presence in the molecule of the antibiotic of the neutral sugar oleandrose (J. Antib. (1976) XXIX (7), 728).
# (§2) Bacteriostatic power in solid medium of Erythromycin A, Erythromycin B,
# (§3) aerobic and anaerobic bacteria, Gram positive and Gram negative minimum
# (§4) inhibiting concentrations expressed in mcg/ml.
# [2] = system: Shigella sonnei LRP 5; test: as above; assay type: cell-based
# Source text: as §1, §2, §3, §4
# [3] = system: Pseudomonas aeruginosa LRP 9; test: as above; assay type: cell-based
# Source text: as §1, §2, §3, §4
# [4] = system: Bacteroides fragilis ATCC 23745; test: Bacteriostatic power in solid medium (MIC), anaerobic; assay type: cell-based
# [5] = system: Escherichia coli LRP 50; test: Bacteriostatic power in solid medium (MIC), aerobic Gram negative; assay type: cell-based; details: solid medium, LRP 50
# [6] = system: Staphylococcus aureus LRP 14; test: Bacteriostatic power in solid medium (MIC), aerobic Gram positive; assay type: cell-based
# [7] = system: Micrococcus luteus ATCC 9341; test: as above; assay type: cell-based
# [8] = system: Streptococcus pneumonieae ATCC 6303; test: as above; assay type: cell-based
# [9] = system: Mycoplasma hominis I ATCC 14097; test: Bacteriostatic power in solid medium (MIC), aerobic Gram negative; assay type: cell-based
# [10] = system: Streptococcus faecalis LRP 7; test: Bacteriostatic power in solid medium (MIC), aerobic Gram positive; assay type: cell-based
# [11] = system: Corynebacterium diphteriae LRP 24; test: as above; assay type: cell-based
# [12] = system: Bacillus subtilis LRP 25; test: as above; assay type: cell-based
# [13] = system: Neisseria Gonorrhoeae ATCC 19424; test: Bacteriostatic power in solid medium (MIC), aerobic Gram negative; assay type: cell-based
# [14] = system: Acholeplasma laidlawii ATCC 23206; test: as above; assay type: cell-based
# [15] = system: Staphylococcus aureus ATCC 14154; test: Bacteriostatic power in solid medium (MIC), aerobic Gram positive; assay type: cell-based
# Source text: as §1, §2, §3, §4
# [16] = system: Micrococcus luteus ATCC 15957; test: as above; assay type: cell-based
# Source text: as §1, §2, §3, §4
# [17] = system: Clostridium perfrigens ATCC 3624; test: Bacteriostatic power in solid medium (MIC), anaerobic; assay type: cell-based
# [18] = system: Salmonella typhi LRP 8; test: Bacteriostatic power in solid medium (MIC), aerobic Gram negative; assay type: cell-based
# [19] = system: Proteus vulgaris ATCC 6380; test: as above; assay type: cell-based
# [20] = system: Streptococcus pyogenes LRP 197; test: Bacteriostatic power in solid medium (MIC), aerobic Gram positive; assay type: cell-based
# [21] = system: Streptococcus pneumonieae LRP 53; test: as above; assay type: cell-based
# [22] = system: Streptococcus pneumonieae LRP 52; test: as above; assay type: cell-based
# [23] = system: Streptococcus faecalis sub. zymogenes ATCC 12958; test: as above; assay type: cell-based
# [24] = system: Fusobacterium necrophorum ATCC 27852; test: Bacteriostatic power in solid medium (MIC), anaerobic; assay type: cell-based
# [25] = physchem; assay type: physicochemical; details: for half-life: acidic environment
# Source text: t 1/2 represents the half life time of the antibiotics as determined by
# high pressure liquid phase chromatography (HPLC).
# [26] = system: Staphylococcus aureus ATCC 6538 P; test: Bacteriostatic power in solid medium (MIC), aerobic Gram positive; assay type: cell-based
# [27] = system: Klebsiella pneumoniae LRP 54; test: Bacteriostatic power in solid medium (MIC), aerobic Gram negative; assay type: cell-based
# [28] = system: Streptococcus pyogenes ATCC 8668; test: Bacteriostatic power in solid medium (MIC), aerobic Gram positive; assay type: cell-based
compound,measurement,setting,value
"3-O-oleandrosyl-5-O-desosaminyl-(8S)-8,19-epoxyerythronolide B [P 15153]",minimum inhibiting concentration,[1]; LRP 213,12.5 µg/mL
same,minimum inhibiting concentration,[2],> 25 µg/mL
same,minimum inhibiting concentration,[3],> 25 µg/mL
same,minimum inhibiting concentration,"[4]; solid medium, LRP 205, anaerobic",6.25 µg/mL
same,minimum inhibiting concentration,[5],25 µg/mL
same,minimum inhibiting concentration,"[6]; solid medium, LRP 14, Penycilline resistant",0.195 µg/mL
same,minimum inhibiting concentration,"[7]; solid medium, LRP 6",0.024 µg/mL
same,minimum inhibiting concentration,"[8]; solid medium, LRP 35",0.049 µg/mL
same,minimum inhibiting concentration,"[9]; solid medium, LRP 211",> 25 µg/mL
same,minimum inhibiting concentration,"[10]; solid medium, LRP 7",0.78 µg/mL
same,minimum inhibiting concentration,"[11]; solid medium, LRP 24",0.024 µg/mL
same,minimum inhibiting concentration,"[12]; solid medium, LRP 25",0.195 µg/mL
same,minimum inhibiting concentration,"[13]; solid medium, LRP 214",0.195 µg/mL
same,minimum inhibiting concentration,"[14]; solid medium, LRP 204",1.56 µg/mL
same,minimum inhibiting concentration,"[15]; LRP 78, Erythromicina resistant",> 25 µg/mL
same,minimum inhibiting concentration,"[16]; LRP 193, Erythromicina resistant",> 25 µg/mL
same,minimum inhibiting concentration,[17]; LRP 206,3.12 µg/mL
same,minimum inhibiting concentration,"[18]; solid medium, LRP 8",25 µg/mL
same,minimum inhibiting concentration,"[19]; solid medium, LRP 13",> 25 µg/mL
same,minimum inhibiting concentration,"[20]; solid medium, LRP 197",0.049 µg/mL
same,minimum inhibiting concentration,"[21]; solid medium, LRP 53",0.024 µg/mL
same,minimum inhibiting concentration,"[22]; solid medium, LRP 52",0.049 µg/mL
same,minimum inhibiting concentration,"[23]; solid medium, LRP 61",0.39 µg/mL
same,minimum inhibiting concentration,"[24]; solid medium, LRP 210, anaerobic",25 µg/mL
same,t 1/2,"[25]; pH 2.0, 25° C.",65 h
same,minimum inhibiting concentration,"[26]; solid medium, LRP 39",0.195 µg/mL
same,minimum inhibiting concentration,"[27]; solid medium, LRP 54",> 25 µg/mL
same,minimum inhibiting concentration,"[28]; solid medium, LRP 34",0.049 µg/mL
"CC[C@H]1OC(=O)[C@H](C)[C@@H](O[C@H]2C[C@@](C)(OC)[C@@H](O)[C@H](C)O2)[C@H](C)[C@@H](O[C@@H]2O[C@H](C)C[C@H](N(C)C)[C@H]2O)[C@](C)(O)C[C@@H](C)C(=O)[C@H](C)[C@@H](O)[C@]1(C)O [Erythromycin A, reference compound]",MIC,"[1]; Haemophilus influenzae, ATCC19418, LRP 213, read-out: minimum inhibiting concentration",3.12 µg/mL
same,MIC,"[2]; Shigella sonnei, LRP5, read-out: minimum inhibiting concentration",12.5 µg/mL
same,MIC,"[3]; Pseudomonas aeruginosa, LRP9, read-out: minimum inhibiting concentration",> 25 µg/mL
same,MIC,"[4]; Bacteroides fragilis, ATCC23745, read-out: minimum inhibiting concentration",0.195 µg/mL
same,MIC,"[5]; Escherichia coli, LRP50, read-out: minimum inhibiting concentration",6.25 µg/mL
same,MIC,"[6]; Staphylococcus aureus, LRP14, read-out: minimum inhibiting concentration",0.049 µg/mL
same,MIC,"[7]; Micrococcus luteus, ATCC9341, read-out: minimum inhibiting concentration",6 ng/mL
same,MIC,"[8]; Streptococcus, ATCC6303, read-out: minimum inhibiting concentration",0.012 µg/mL
same,MIC,"[9]; Metamycoplasma hominis, ATCC14097, read-out: minimum inhibiting concentration",> 25 µg/mL
same,MIC,"[10]; Enterococcus faecalis, LRP7, read-out: minimum inhibiting concentration",0.097 µg/mL
same,MIC,"[11]; Corynebacterium, LRP24, read-out: minimum inhibiting concentration",6 ng/mL
same,MIC,"[12]; Bacillus subtilis, LRP25, read-out: minimum inhibiting concentration",0.049 µg/mL
same,MIC,"[13]; Neisseria gonorrhoeae, ATCC19424, read-out: minimum inhibiting concentration",0.049 µg/mL
same,MIC,"[14]; Acholeplasma laidlawii, ATCC23206, read-out: minimum inhibiting concentration",0.097 µg/mL
same,MIC,"[15]; Staphylococcus aureus, ATCC14154, LRP 78, Erythromicina resistant, read-out: minimum inhibiting concentration",> 25 µg/mL
same,MIC,"[16]; Micrococcus luteus, ATCC15957, LRP 193, Erythromicina resistant, read-out: minimum inhibiting concentration",> 25 µg/mL
same,MIC,"[17]; Clostridium, ATCC3624, LRP 206, read-out: minimum inhibiting concentration",1.56 µg/mL
same,MIC,"[18]; Salmonella enterica, TYPHI, read-out: minimum inhibiting concentration",12.5 µg/mL
same,MIC,"[19]; Proteus vulgaris, ATCC6380, read-out: minimum inhibiting concentration",> 25 µg/mL
same,MIC,"[20]; Streptococcus pyogenes, LRP197, read-out: minimum inhibiting concentration",0.012 µg/mL
same,MIC,"[21]; Streptococcus, LRP53, read-out: minimum inhibiting concentration",0.012 µg/mL
same,MIC,"[22]; Streptococcus, LRP52, read-out: minimum inhibiting concentration",0.012 µg/mL
same,MIC,"[23]; Enterococcus faecalis, ATCC12958, read-out: minimum inhibiting concentration",0.195 µg/mL
same,MIC,"[24]; Fusobacterium necrophorum, ATCC27852, read-out: minimum inhibiting concentration",1.56 µg/mL
same,half-life,[25]; pH 2,2 min
same,half-life,[25]; pH 3,6 min
same,MIC,"[26]; Staphylococcus aureus, ATCC6538, read-out: minimum inhibiting concentration",0.049 µg/mL
same,MIC,"[27]; Klebsiella pneumoniae, LRP54, read-out: minimum inhibiting concentration",25 µg/mL
same,MIC,"[28]; Streptococcus pyogenes, ATCC8668, read-out: minimum inhibiting concentration",0.012 µg/mL
